Laboratory results reported in patent US5977169A, “Substituted tetronic acids useful for treating HIV and other retroviruses” (priority 1997, dated 1999).

Target: T1, HIV-1 protease (Human immunodeficiency virus type 1 group M subtype B, UniProt P04585)
T1 construct: The protease (or proteinase) enzyme, consisting of only 99 amino acids
Assay: In vitro HIV protease inhibitory assay (fluorescently labeled substrate, avidin-polystyrene particles)
Assay type: biochemical
Settings: for inhibition at 3.3 µM: HIV-1 dose 3.3 μM; for inhibition at 10 µM: HIV-1 dose 10.0 μM; for inhibition at 30 µM: HIV-1 dose 30.0 μM
Summary of the method: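 Biotinylated, FITC-labelled peptide substrate cleaved by HIV-1 protease for 1 h at room temperature in the dark, in 0.1 M sodium acetate pH 5.5 with 1.0 M NaCl and 0.05% NP-40. Product separated from substrate with avidin-polystyrene beads and filtration; fluorescence read as percent inhibition at stated compound concentrations.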

| inhibition at 3.3 µM | inhibition at 10 µM | inhibition at 30 µM | Structure (SMILES) | HIV-1 Protease % Inhibition (test compound concentration 3.3 μM) | HIV-1 Protease % Inhibition (test compound concentration 10.0 μM) | HIV-1 Protease % Inhibition (test compound concentration 30.0 μM) |
| --- | --- | --- | --- | --- | --- | --- |
| 99.2% | 100% | 96.7% | CCCC1(CCC)OC(=O)C(C(c2cccc(NS(=O)(=O)c3nccn3C)c2)C2CC2)=C1O (stereo not drawn) [IX-37, 1-Methyl-1H-imidazole-2-sulfonamide, N-(3-(cyclopropyl(2,5-dihydro-4-hydroxy-2-oxo-5,5-dipropyl-3-furanyl)methyl)phenyl)-] | – | – | – |
| 83% | 85% | 84.8% | CCCC1(CCC)OC(=O)C(C(c2cccc(NS(=O)(=O)c3ccc4ccccc4n3)c2)C2CC2)=C1O (stereo not drawn) [IX-38] | – | – | – |
| 76.8% | 78.1% | 106% | CCCC1(CCC)OC(=O)C(C(Cc2ccccc2)c2cccc(NS(=O)(=O)c3ccc(C#N)cc3)c2)=C1O (stereo not drawn) [IX-39, Benzenesulfonamide, 4-cyano-N-(3-(1-(4-hydroxy-2-oxo-5,5-dipropyl-2,5-dihydro-furan-3-yl)-2-phenyl-ethyl)-phenyl)-] | – | – | – |
| 90.8% | 91.1% | 104% | CCCC1(CCC)OC(=O)C(C(Cc2ccccc2)c2cccc(NS(=O)(=O)c3cn(C)cn3)c2)=C1O (stereo not drawn) [IX-40] | – | – | – |
| 97.4% | 96.9% | 101% | CCCC1(CCC)OC(=O)C(C(c2cccc(NS(=O)(=O)c3ccc(C#N)cc3)c2)C2CCCC2)=C1O (stereo not drawn) [IX-41] | – | – | – |
| 94.5% | 96% | 96.8% | CCCC1(CCC)OC(=O)C(C(c2cccc(NS(=O)(=O)c3cn(C)cn3)c2)C2CCCC2)=C1O (stereo not drawn) [IX-42, 1H-Imidazole-4-sulfonamide, N-(3-(cyclopentyl(2,5-dihydro-4-hydroxy-2-oxo-5,5-dipropyl-3-furanyl)methyl)phenyl)-1-methyl-] | – | – | – |
| 98.6% | 96.8% | 99.8% | N#Cc1ccc(S(=O)(=O)Nc2cccc(C(C3=C(O)C(Cc4ccccc4)(Cc4ccccc4)OC3=O)C3CC3)c2)cc1 (stereo not drawn) [IX-43] | – | – | – |
| 90.3% | 92.3% | 80.3% | O=C1OC(Cc2ccccc2)(Cc2ccccc2)C(O)=C1C(c1cccc(NS(=O)(=O)c2ccc(F)cc2)c1)C1CC1 (stereo not drawn) [IX-44] | – | – | – |
| 91.9% | 94.3% | 80.9% | Cn1cnc(S(=O)(=O)Nc2cccc(C(C3=C(O)C(Cc4ccccc4)(Cc4ccccc4)OC3=O)C3CC3)c2)c1 (stereo not drawn) [IX-45, 1H-Imidazole-4-sulfonamide, N-(3-(cyclopropyl-(5,5-dibenzyl-4-hydroxy-2-oxo-2,5-dihydro-3-furanyl)methyl)phenyl)-1-methyl-] | – | – | – |
| 90.3% | 87% | 81.7% | O=C1OC(Cc2ccccc2)(Cc2ccccc2)C(O)=C1C(c1cccc(NS(=O)(=O)c2cccc3cccnc23)c1)C1CC1 (stereo not drawn) [IX-46, 8 Quinolinesulfonamide, N-(3-(cyclopropyl-(5,5-dibenzyl-4-hydroxy-2-oxo-2,5-dihydro-3-furanyl)methyl)phenyl)-] | – | – | – |
| 93.5% | 103% | 88.3% | CCCC1(CCC)OC(=O)C(C(c2ccccc2)c2cccc(NS(=O)(=O)c3ccc(C#N)cc3)c2)=C1O (stereo not drawn) [IX-47, Benzenesulfonamide, 4-cyano-N-(3-((5,5-dipropyl-4-hydroxy-2-oxo-2,5-dihydro-3-furanyl)-phenyl-methyl)phenyl)-] | – | – | – |
| 94.5% | 94.7% | 89.1% | CCCC1(CCC)OC(=O)C(C(c2ccccc2)c2cccc(NS(=O)(=O)c3cn(C)cn3)c2)=C1O (stereo not drawn) [IX-48, 1H-Imidazole-4-sulfonamide, N-(3-((5,5-dipropyl-4-hydroxy-2-oxo-2,5-dihydro-3 furanyl)-phenyl-methyl)phenyl)-1-methyl-] | – | – | – |
| – | – | – | CCCC1(CCC)OC(=O)C(C(c2cccc(NS(=O)(=O)c3ccc(C#N)c(C4CCCC4)c3)c2)C2CCCC2)=C1O (stereo not drawn) [IX-49, Benzenesulfonamide, 4-cyano 3-cyclpentyl-N-(3-(cyclopentyl(2,5-dihydro-4-hydroxy-2-oxo-5,5-dipropyl-3-furanyl)methyl)phenyl)-] | 86.97% | 94.94% | 78.56% |
| 108% | 104% | 106% | CCCC1(CCC)OC(=O)C(C(c2cccc(NS(=O)(=O)c3nnnn3-c3ccccc3)c2)C2CC2)=C1O (stereo not drawn) [IX-50] | – | – | – |
| 101% | 102% | 106% | CCCC1(CCC)OC(=O)C(C(c2cccc(NS(=O)(=O)c3nc4ccccc4[nH]3)c2)C2CC2)=C1O (stereo not drawn) [IX-51] | – | – | – |
| 110% | 104% | 99.9% | CCCC1(CCC)OC(=O)C(C(c2cccc(NS(=O)(=O)c3ccccn3)c2)C2CC2)=C1O (stereo not drawn) [IX-52, 2-Pyridinesulfonamide, N-(3-(cyclopropyl-(4-hydroxy-2-oxo-5,5-dipropyl-2,5-dihydro-furan-3-yl)-methyl)-phenyl)-] | – | – | – |
| 102% | 104% | 92% | Cn1cnc(S(=O)(=O)Nc2cccc(C(C3=C(O)C(Cc4ccccc4)(Cc4ccccc4)OC3=O)C(C)(C)C)c2)c1 (stereo not drawn) [IX-53] | – | – | – |
| 102% | 105% | 92.4% | CC(C)(C)C(C1=C(O)C(Cc2ccccc2)(Cc2ccccc2)OC1=O)c1cccc(NS(=O)(=O)c2ccc(C#N)cc2)c1 (stereo not drawn) [IX-54] | – | – | – |
| 93.8% | 93.8% | 96.3% | CCCC1(CCC)OC(=O)C(C(c2cccc(NS(=O)(=O)c3ncccn3)c2)C2CC2)=C1O (stereo not drawn) [IX-55, 2-Pyrimidinesulfonamide, N-(3-(cyclopropyl-(4-hydroxy-2-oxo-5,5-dipropyl-2,5 dihydro-furan-3-yl)-methyl)-phenyl)-] | – | – | – |
| 81.9% | 101% | 92.5% | N#Cc1ccc(S(=O)(=O)Nc2cccc(CC3=C(O)C(Cc4ccccc4)(Cc4ccccc4)OC3=O)c2)cc1 [IX-56] | – | – | – |
| 79.8% | 86.8% | 87.4% | O=C1OC2(CCN(C(=O)OCC3c4ccccc4-c4ccccc43)CC2)C(O)=C1C(c1ccccc1)C1CC1 (stereo not drawn) [IX-58, 3-(Cyclopropyl-phenyl-methyl)-4-hydroxy-2-oxo-1-oxa-8-aza-spiro[4.5]dec-3-ene-8-carboxylic acid 9H-fluoren-9-ylmethyl ester] | – | – | – |
| 94.3% | 103% | 103% | O=C1OC(=CCCc2ccccc2)C(O)=C1C(c1ccccc1)C1CC1 (stereo not drawn) [JX-1, 3-(Cyclopropyl-phenyl-methyl)-4-hydroxy-5-(3-phenyl-propyl-idene)-5H-furan-2-one] | – | – | – |
| 56.9% | 87.7% | 103% | O=C1O/C(=C\c2ccccc2)C(O)=C1C(c1ccccc1)C1CC1 (stereo not drawn) [JX-2, 5-Benzylidene-3-(cyclopropyl-phenyl-methyl)-4-hydroxy-5H-furan-2-one] | – | – | – |
| 43.2% | 65.3% | 96.3% | CC/C=C1\OC(=O)C(C(c2ccccc2)C2CC2)=C1O (stereo not drawn) [JX-3, 3-(Cyclopropyl-phenyl-methyl)-4-hydroxy-5-propylidene-5H-furan-2-one] | – | – | – |
